# From article PMC3994029 (PLoS ONE, 2014)
# Experiments:
# Experiment in all cases: competition of […]-glucose uptake by germinating conidia
# Format in all cases: cell-based
# MstC (SorA) [1] = target: T1, MstC (SorA) (Aspergillus nidulans, UniProt Q5AYG1); settings: wild type V004 conidia germinated on glycerol; 16 µM 14C-glucose, 200-fold excess competitor (3.2 mM)
# T1 construct: gene ANIA_06669; native full-length protein, 534 aa, in intact germinating conidia (4 h, glycerol)
# T1 sequence (Q5AYG1 1-534): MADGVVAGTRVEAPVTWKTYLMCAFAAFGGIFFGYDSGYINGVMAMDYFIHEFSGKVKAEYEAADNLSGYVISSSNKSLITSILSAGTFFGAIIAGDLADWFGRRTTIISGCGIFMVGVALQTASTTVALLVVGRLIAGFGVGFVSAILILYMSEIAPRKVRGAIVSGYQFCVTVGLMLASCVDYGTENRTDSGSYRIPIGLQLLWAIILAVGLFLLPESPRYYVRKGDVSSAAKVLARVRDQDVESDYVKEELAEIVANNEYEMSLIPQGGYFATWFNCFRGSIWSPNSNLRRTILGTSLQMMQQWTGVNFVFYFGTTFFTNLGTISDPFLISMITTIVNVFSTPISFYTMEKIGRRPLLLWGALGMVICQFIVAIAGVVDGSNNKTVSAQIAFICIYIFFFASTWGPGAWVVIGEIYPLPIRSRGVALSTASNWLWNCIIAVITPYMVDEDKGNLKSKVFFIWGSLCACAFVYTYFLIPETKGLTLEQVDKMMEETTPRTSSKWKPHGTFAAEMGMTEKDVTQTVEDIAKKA
# MstA = target: T2, MstA (Aspergillus nidulans, UniProt Q5ASJ3); settings: V152 conidia germinated on glycerol; 90 µM 14C-glucose, 200-fold excess competitor (18 mM); minor low-affinity background uptake
# T2 construct: gene ANIA_08737; full-length protein, 527 aa, homologous expression from mstC promoter in mstA mstC double-deleted A. nidulans; intact germinating conidia
# MstC (SorA) [2] = target: T1, MstC (SorA); settings: wild type V004 conidia germinated on glycerol; 16 µM 14C-glucose, 200-fold excess competitor (3.2 mM); remark: listed apart in the source
# T2 sequence (Q5ASJ3 entry or part of it): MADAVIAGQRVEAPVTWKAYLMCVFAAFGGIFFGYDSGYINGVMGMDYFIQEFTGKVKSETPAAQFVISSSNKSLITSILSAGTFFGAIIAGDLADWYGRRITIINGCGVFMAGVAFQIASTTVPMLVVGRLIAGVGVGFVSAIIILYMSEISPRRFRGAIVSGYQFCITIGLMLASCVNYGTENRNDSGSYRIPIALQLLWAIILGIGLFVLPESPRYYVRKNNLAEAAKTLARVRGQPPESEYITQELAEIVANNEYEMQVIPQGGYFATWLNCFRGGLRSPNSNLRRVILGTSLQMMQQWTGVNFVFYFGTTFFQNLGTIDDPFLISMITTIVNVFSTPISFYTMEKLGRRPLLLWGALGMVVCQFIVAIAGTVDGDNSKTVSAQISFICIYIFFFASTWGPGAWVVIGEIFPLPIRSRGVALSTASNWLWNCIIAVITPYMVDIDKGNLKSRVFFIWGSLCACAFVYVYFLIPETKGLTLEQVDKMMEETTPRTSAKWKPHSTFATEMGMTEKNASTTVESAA
% reduction of uptake (MstC (SorA) [2]) [%],SMILES,"relative uptake rate, % of control (MstC (SorA) [1])","relative uptake rate, % of control (MstA)"
–,OC[C@H]1OC(O)C[C@@H](O)[C@@H]1O (stereo partly drawn) [2-DOG],"most effective competitor, along with the glucose analogues 2-DOG and 3-O-methyl glucose",–
–,CO[C@H]1[C@H](O)[C@@H](CO)OC(O)[C@@H]1O (stereo partly drawn) [3-O-methyl glucose],"most effective competitor, along with the glucose analogues 2-DOG and 3-O-methyl glucose",–
–,OC[C@H]1OC(O)[C@H](O)[C@@H](O)[C@H]1O (stereo partly drawn) [galactose],–,xylose and galactose may also be minor physiological sugar substrates for this transporter
80,OC[C@H]1OC(O)[C@@H](O)[C@@H](O)[C@@H]1O (stereo partly drawn) [mannose],–,mannose is the most effective substrate of those studied in competing against glucose uptake
–,OC1OC[C@@H](O)[C@H](O)[C@H]1O (stereo partly drawn) [xylose],–,xylose and galactose may also be minor physiological sugar substrates for this transporter
